In ChEMBL document CHEMBL1141744, “Antibacterial steroidal alkaloids from Sarcococca saligna” (1998):

How the values were obtained:
Proteus mirabilis = test: Antibacterial activity against Proteus mirabilis after at 200 ug/100uL 24 hrs by agar well diffusion method; format: functional
Shigella boydii = test: Antibacterial activity against Shigella boydii at 200 ug/100uL after 24 hrs by agar well diffusion method; format: functional
Staphylococcus aureus = test: Antibacterial activity against Staphylococcus aureus at 200 ug/100uL after 24 hrs by agar well diffusion method; format: functional
Klebsiella pneumoniae = test: Antibacterial activity against Klebsiella pneumoniae at 200 ug/100uL after 24 hrs by agar well diffusion method; format: functional
Pseudomonas aeruginosa = test: Antibacterial activity against Pseudomonas aeruginosa at 200 ug/100uL after 24 hrs by agar well diffusion method; format: functional
Streptococcus pyogenes = test: Antibacterial activity against Streptococcus pyogenes at 200 ug/100uL after 24 hrs by agar well diffusion method; format: functional
Salmonella typhi = test: Antibacterial activity against Salmonella typhi at 200 ug/100uL after 24 hrs by agar well diffusion method; format: functional, Salmonella enterica subsp. enterica serovar Typhi

Compound	inhibition zone (IZ) (Proteus mirabilis) [mm]	inhibition zone (IZ) (Shigella boydii) [mm]	inhibition zone (IZ) (Staphylococcus aureus) [mm]	inhibition zone (IZ) (Klebsiella pneumoniae) [mm]	inhibition zone (IZ) (Pseudomonas aeruginosa) [mm]	inhibition zone (IZ) (Streptococcus pyogenes) [mm]	inhibition zone (IZ) (Salmonella typhi) [mm]
C[C@@H]([C@H]1CC[C@H]2[C@@H]3CC[C@H]4C[C@@H](N(C)C(=O)/C=C/c5ccccc5)CC[C@]4(C)[C@H]3CC[C@]12C)N(C)C [SALIGCINNAMIDE]	7	6	12	9	6	8	6
C[C@@H]([C@H]1CC[C@H]2[C@@H]3CC[C@H]4C[C@@H](NC(=O)c5ccccc5)CC[C@]4(C)[C@H]3CC[C@]12C)N(C)C [EPIPACHYSAMINE D]	–	–	7	–	–	–	–
CC1(C)S[C@@H]2[C@H](NC(=O)[C@H](N)c3ccc(O)cc3)C(=O)N2[C@H]1C(=O)O [AMOXICILLIN]	16	17	16	17	15	16	12
CC1(C)S[C@@H]2[C@H](NC(=O)[C@H](N)c3ccccc3)C(=O)N2[C@H]1C(=O)O [AMPICILLIN]	17	17	18	17	15	17	12
C[C@@H]([C@H]1CC[C@H]2[C@@H]3CC[C@H]4C[C@@H](N(C)C(=O)CCc5ccccc5)CC[C@]4(C)[C@H]3CC[C@]12C)N(C)C	–	–	11	10.5	7.5	–	–
C[C@@H]([C@H]1CC[C@H]2[C@@H]3CC[C@H]4C[C@@H](N(C)CCCc5ccccc5)CC[C@]4(C)[C@H]3CC[C@]12C)N(C)C	–	–	–	–	5.5	–	–
C[C@@H]([C@H]1CC[C@H]2[C@@H]3CC[C@H]4C[C@@H](N(C)C(=O)c5ccccc5)CC[C@]4(C)[C@H]3CC[C@]12C)N(C)C	8	6	12	8	6	6	6
C[C@@H]([C@H]1CC[C@H]2[C@@H]3CC[C@H]4C[C@@H](N(C)Cc5ccccc5)CC[C@]4(C)[C@H]3CC[C@]12C)N(C)C	–	–	9	6	5.5	–	–
